{"source": "patent US6982348B2", "about": "“Aminoethanol derivatives” (Takeda Pharmaceutical Company Limited, priority 2001, dated 2006)"}
{"units": {"melting point": "°C"}}
{"smiles": "O=C(N[C@H](Cc1cccc(OCC(F)(F)C(F)F)c1)[C@@H](O)c1ccc(F)cc1)c1ccc(F)c2ccccc12", "note": "(racemic) [Example 172, N-((1RS,2SR)-2-(4-fluorophenyl)-2-hydroxy-1-((3-(2,2,3,3-tetrafluoropropyloxy)phenyl)methyl)ethyl)-4-fluoro-1-naphthalenecarboxamide]", "melting point": "160 to 161"}
{"smiles": "Cn1cc(C(=O)N[C@H](Cc2ccc(C(F)(F)F)cc2)[C@@H](O)c2ccc(F)cc2)c2ccccc21", "note": "(racemic) [Example 98, N-[(1RS,2SR)-2-(4-fluorophenyl)-2-hydroxy-1-[4-(trifluoromethyl)benzyl]ethyl]-1-methyl-1H-indole-3-carboxamide]", "melting point": "129 to 131"}
{"smiles": "O=C(N[C@H](Cc1cccc(OC(F)(F)C(F)F)c1)[C@@H](O)c1ccc(-c2ccsc2)cc1)c1cccc2c1C=CCCC2", "note": "(racemic) [Example 292, N-[(1RS,2SR)-2-hydroxy-1-[3-(1,1,2,2-tetrafluoroethoxy)benzyl]-2-[4-(3-thienyl)phenyl]ethyl]-6,7-dihydro-5H-benzo[a]cycloheptene-1-carboxamide]", "melting point": "178 to 179"}
{"smiles": "CC(C)(C)c1cccc(C[C@@H](NC(=O)c2cccc3c(Cl)cccc23)[C@@H](O)c2cccc(Cl)c2)c1", "note": "(racemic) [Example 371, N-[(1RS,2SR)-1-[3-(tert-butyl)benzyl]-2-(3-chlorophenyl)-2-hydroxyethyl]-5-chloro-1-naphthamide]", "melting point": "91 to 93"}
{"smiles": "O=C(N[C@H](Cc1ccc(C(F)(F)F)cc1)[C@@H](O)c1cccc2ccccc12)c1ccc(F)cc1", "note": "(racemic) [Example 188, 4-fluoro-N-((1RS,2SR)-2-hydroxy-2-(1-naphthalenyl)-1-((4-(trifluoromethyl)phenyl)methyl)ethyl)benzamide]", "melting point": "194 to 195"}
{"smiles": "O=C(N[C@H](Cc1cccc(OC(F)(F)C(F)F)c1)[C@@H](O)c1cccc(F)n1)c1ccc(F)c2ccccc12", "note": "(racemic) [Example 266, 4-fluoro-N-{(1RS,2RS)-2-(6-fluoropyridin-2-yl)-2-hydroxy-1-[3-(1,1,2,2-tetrafluoroethoxy)benzyl]ethyl}-1-naphthamide]", "melting point": "185 to 186"}
{"smiles": "O=C(N[C@H](Cc1ccc(C(F)(F)F)cc1)[C@@H](O)c1ccc(F)cc1)c1cccc2c1C(=O)c1ccccc1-2", "note": "(racemic) [Example 85, N-((1RS,2SR)-2-(4-fluorophenyl)-2-hydroxy-1-((4-(trifluoromethyl)phenyl)methyl)ethyl)-9-oxo-9H-fluorene-1-carboxamide]", "melting point": "185 to 186"}
{"smiles": "CC(C)(C)OC(=O)Nc1ccc([C@H](O)[C@@H](Cc2cccc(OC(F)(F)C(F)F)c2)NC(=O)c2cccc3c2C=CCCC3)cc1", "note": "(racemic) [Example 321, N-[(1RS,2SR)-2-[4-[(tert-butoxycarbonyl)amino]phenyl]-2-hydroxy-1-[3-(1,1,2,2-tetrafluoroethoxy)benzyl]ethyl]-6,7-dihydro-5H-benzo[a]cycloheptene-1-carboxamide]", "melting point": "153 to 156"}
{"smiles": "O=C(N[C@H](Cc1cccc(C(F)(F)F)c1)[C@@H](O)c1ccc(F)cc1)c1cccc2ccccc12", "note": "(racemic) [Example 136, N-((1RS,2SR)-2-(4-fluorophenyl)-2-hydroxy-1-((3-(trifluoromethyl)phenyl)methyl)ethyl)-1-naphthalenecarboxamide]", "melting point": "158 to 159"}
{"smiles": "O=Cc1ccc(-c2ccc([C@H](O)[C@@H](Cc3cccc(OC(F)(F)C(F)F)c3)NC(=O)c3cccc4c3C=CCCC4)cc2)cc1", "note": "(racemic) [Example 299, N-[(1RS,2SR)-2-(4′-formyl[1,1′-biphenyl]-4-yl)-2-hydroxy-1-[3-(1,1,2,2-tetrafluoroethoxy)benzyl]ethyl]-6,7-dihydro-5H-benzo[a]cycloheptene-1-carboxamide]", "melting point": "174 to 176"}
{"smiles": "Nc1ccc([C@H](O)[C@@H](Cc2cccc(OC(F)(F)C(F)F)c2)NC(=O)c2cccc3c2C=CCCC3)cc1", "note": "(racemic) [Example 322, N-[(1RS,2SR)-2-(4-aminophenyl)-2-hydroxy-1-[3-(1,1,2,2-tetrafluoroethoxy)benzyl]ethyl]-6,7-dihydro-5H-benzo[a]cycloheptene-1-carboxamide]", "melting point": "153 to 155"}
{"smiles": "COc1cccc(-c2ccc([C@H](O)[C@@H](Cc3cccc(OC(F)(F)C(F)F)c3)NC(=O)c3cccc4c3C=CCCC4)cc2)c1", "note": "(racemic) [Example 298, N-[(1RS,2SR)-2-hydroxy-2-(3′-methoxy[1,1′-biphenyl]-4-yl)-1-[3-(1,1,2,2-tetrafluoroethoxy)benzyl]ethyl]-6,7-dihydro-5H-benzo[a]cycloheptene-1-carboxamide]", "melting point": "79 to 81"}
{"smiles": "O=C(N[C@H](Cc1cccc(OC(F)(F)C(F)F)c1)[C@@H](O)c1ccnc(F)c1)c1ccc(F)c2ccccc12", "note": "(racemic) [Example 265, 4-fluoro-N-{(1RS,2SR)-2-(2-fluoropyridin-4-yl)-2-hydroxy-1-[3-(1,1,2,2-tetrafluoroethoxy)benzyl]ethyl}-1-naphthamide]", "melting point": "170 to 171"}
{"smiles": "O=C(N[C@H](Cc1cccc(S(=O)(=O)C(F)(F)F)c1)[C@@H](O)c1ccc(F)cc1)c1cccc2c1C=CCCC2", "note": "(racemic) [Example 280, N-((1RS,2SR)-2-(4-fluorophenyl)-2-hydroxy-1-{3-[(trifluoromethyl)sulfonyl]benzyl}ethyl)-6,7-dihydro-5H-benzo[a][7]annulene-1-carboxamide]", "melting point": "156 to 157"}
{"smiles": "O=C(CCCc1ccccc1)N[C@H](Cc1ccc(C(F)(F)F)cc1)[C@@H](O)c1ccc(F)cc1", "note": "(racemic) [Example 47, N-((1RS,2SR)-2-(4-fluorophenyl)-2-hydroxy-1-((4-(trifluoromethyl)phenyl)methyl)ethyl)-4-phenylbutyramide]", "melting point": "150 to 151"}
{"smiles": "O=C(N[C@H](Cc1ccc(C(F)(F)F)cc1)[C@@H](O)c1cccc2ccccc12)C1CCCCC1", "note": "(racemic) [Example 190, N-((1RS,2SR)-2-hydroxy-2-(1-naphthalenyl)-1-((4-(trifluoromethyl)phenyl)methyl)ethyl)cyclohexanecarboxamide]", "melting point": "156 to 157"}
{"smiles": "CC(C)(C)Cc1ccc(C[C@@H](NC(=O)c2cccc3c(Cl)cccc23)[C@@H](O)c2cccc(Cl)c2)cc1", "note": "(racemic) [Example 346, 5-chloro-N-[(1RS,2SR)-2-(3-chlorophenyl)-2-hydroxy-1-(4-neopentylbenzyl)ethyl]naphthalene-1-carboxamide]", "melting point": "168 to 169"}
{"smiles": "CC(C)(C)COc1cccc(C[C@@H](NC(=O)c2ccc(F)c3ccccc23)[C@@H](O)c2cccc(Cl)c2)c1", "note": "(racemic) [Example 366, N-[(1RS,2SR)-1-[3-(neopentyloxy)benzyl]-2-(3-chlorophenyl)-2-hydroxyethyl]-4-fluoro-1-naphthamide]", "melting point": "165 to 166"}
{"smiles": "O=C(N[C@H](Cc1ccc(C(F)(F)F)cc1)[C@@H](O)c1ccc(F)cc1)C(F)(F)F", "note": "(racemic) [Example 70, N-[(1RS,2SR)-2-(4-fluorophenyl)-2-hydroxy-1-[4-(trifluoromethyl)benzyl]ethyl]-2,2,2-trifluoroacetamide]", "melting point": "162 to 163"}
{"smiles": "O=C(N[C@H](Cc1ccc(CC(F)(F)C(F)(F)F)cc1)[C@@H](O)c1cccc(Cl)c1)c1ccc(F)c2ccccc12", "note": "(racemic) [Example 373, N-[(1RS,2SR)-1-[4-(2,2,3,3,3-pentafluoropropyl)benzyl]-2-(3-chlorophenyl)-2-hydroxyethyl]-4-fluoro-1-naphthamide]", "melting point": "191 to 192"}
{"smiles": "O=C(N[C@H](Cc1ccc2c(c1)OC(F)(F)O2)[C@@H](O)c1ccc(F)cc1)c1ccc(F)c2ccccc12", "note": "(racemic) [Example 167, N-[(1RS,2SR)-1-[(2,2-difluoro-1,3-benzodioxol-5-yl)methyl]-2-(4-fluorophenyl)-2-hydroxyethyl]-4-fluoronaphthalene-1-carboxamide]", "melting point": "219 to 220"}
{"smiles": "NC(=O)c1ccc([C@H](O)[C@@H](Cc2cccc(OC(F)(F)C(F)F)c2)NC(=O)c2cccc3c2C=CCCC3)cc1", "note": "(racemic) [Example 311, N-[(1RS,2SR)-2-[4-(aminocarbonyl)phenyl]-2-hydroxy-1-[3-(1,1,2,2-tetrafluoroethoxy)benzyl]ethyl]-6,7-dihydro-5H-benzo[a]cycloheptene-1-carboxamide]", "melting point": "197 to 199"}
{"smiles": "O=C(N[C@H](Cc1cc(OC(F)(F)C(F)F)no1)[C@@H](O)c1ccc(F)cc1)c1cccc2c1C=CCCC2", "note": "(racemic) [Example 320, N-[(1RS,2SR)-2-(4-fluorophenyl)-2-hydroxy-1-[[3-(1,1,2,2-tetrafluoroethoxy)isoxazol-5-yl]methyl]ethyl]-6,7-dihydro-5H-benzo[a]cycloheptene-1-carboxamide]", "melting point": "127 to 128"}
{"smiles": "O=C(N[C@H](Cc1cccc(S(=O)(=O)C(F)(F)F)c1)[C@@H](O)c1ccc(F)cc1)c1ccc(F)c2ccccc12", "note": "(racemic) [Example 281, 4-fluoro-N-((1RS,2SR)-2-(4-fluorophenyl)-2-hydroxy-1-{3-[(trifluoromethyl)sulfonyl]benzyl}ethyl)-1-naphthamide]", "melting point": "157 to 158"}
{"smiles": "O=C(CCc1ccccc1)N[C@H](Cc1ccc(C(F)(F)F)c(F)c1)[C@@H](O)c1ccc(F)cc1", "note": "(racemic) [Example 157, N-((1RS,2SR)-2-(4-fluorophenyl)-1-((3-fluoro-4-(trifluoromethyl)phenyl)methyl)-2-hydroxyethyl)-3-phenylpropanamide]", "melting point": "126 to 127"}
{"smiles": "O=C(N[C@H](Cc1cccc(OC(F)(F)C(F)F)c1)[C@@H](O)c1ccc(-c2ccccc2CO)cc1)c1cccc2c1C=CCCC2", "note": "(racemic) [Example 302, N-[(1RS,2SR)-2-[2′-(hydroxymethyl)[1,1′-biphenyl]-4-yl]-2-hydroxy-1-[3-(1,1,2,2-tetrafluoroethoxy)benzyl]ethyl]-6,7-dihydro-5H-benzo[a]cycloheptene-1-carboxamide]", "melting point": "152 to 154"}
{"smiles": "O=Cc1ccc([C@H](O)[C@@H](Cc2cccc(OC(F)(F)C(F)F)c2)NC(=O)c2cccc3c2C=CCCC3)cc1", "note": "(racemic) [Example 326, N-[(1RS,2SR)-2-(4-formylphenyl)-2-hydroxy-1-[3-(1,1,2,2-tetrafluoroethoxy)benzyl]ethyl]-6,7-dihydro-5H-benzo[a]cycloheptene-1-carboxamide]", "melting point": "164 to 166"}
